Experimental data reported in patent US4148907A, “Stereoisomers of 1-(1'benzyl-2'pyrryl)-2-di-sec.-butylaminoethanol and pharmaceutical compositions comprising same” (Etablissement Viridis, priority 1976, dated 1979).

Legend:
[1] = compared with other isomers, racemic compound or the disclosed class; cited from earlier work
[2] = Therapeutic index (LD50/ED50 tail flick); format: in vivo; conditions: ratio of LD50/ED50, ED50 from the tail flick test
Description: The superiority of new Compounds A and B is also evident from the therapeutic indexes which have been calculated as a ratio of LD50 /ED50' taking as the ED50 value that which is obtained by the tail flick test.

rats [3] = conditions: comparison values given under identical conditions (Pharmacological Research Communications 8, 111 (1976)); cited from earlier work
[4] = Acute toxicity (LD50), method of Litchfield and Wilcoxson; conditions: in vivo, ip
Description: The acute toxicity values (LD50) have been determined by the method of Litchfield and Wilcoxson (J. Pharmacol. 1949, 96, 99) both for the new compounds of this invention and for VIMINOLO and the "R2 " Compound.

[5] = Analgesic activity, comparison in words (hot plate and tail flick data); format: in vivo; conditions: compared with VIMINOLO
Description: (§1) [α]436^20 (in methanol c= 2%): -48° C.±3° C. The analgesic activity (ED50) of isomers A and B has been determined via the hot plate test on mice (N/.B Eddy et Coll. J. Pharmacol. 98, 121, 1950) and via the "tail flick" test on rats (D'Amour and Smith; J. Pharmacol. 1941, 72, 74). The resulting values are set forth in the following Table and compared with the values given under identical conditions for VIMINOLO and the "R2 " Compound referred to hereinabove (Pharmacological Research Communications 8, 111 (1976)).

mice [6] = conditions: comparison values given under identical conditions (Pharmacological Research Communications 8, 111 (1976)); cited from earlier work
mice [7] = assay: Hot plate test on mice (analgesic activity, ED50); format: in vivo; conditions: Mus musculus, sc
Description: as §1

rats [8] = assay: "tail flick" test on rats (analgesic activity, ED50); format: in vivo; conditions: Rattus norvegicus, sc
Description: as §1

SMILES	analgesic activity (prior patents) [1]	T.I. (therapeutic index) [2]	ED50 Tail Flick s.c. (rats [3])	LD50 [4]	analgesic activity relative to VIMINOLO [5]	ED50 hot plate s.c (mice [6])	ED50 (mice [7])	ED50 (rats [8])
CCC(C)N(CC(O)c1cccn1Cc1ccccc1Cl)C(C)CC (single isomer, unassigned) ["R2 " Compound]	much more active than the other isomers and also, more active than the corresponding racemic compound "VIMINOLO"	324	0.71 mg/kg	230 mg/kg	surprisingly more active than VIMINOLO	1.15 mg/kg		
CC[C@@H](C)N(CC(O)c1cccn1Cc1ccccc1F)[C@H](C)CC (single isomer, unassigned) [Isomer A]		872		384 mg/kg			0.65 mg/kg	0.44 mg/kg
CC[C@@H](C)N(CC(O)c1cccn1Cc1ccccc1C(F)(F)F)[C@H](C)CC (single isomer, unassigned) [Isomer B]		942		358 mg/kg			0.6 mg/kg	0.38 mg/kg
CCC(C)N(CC(O)c1cccn1Cc1ccccc1Cl)C(C)CC (stereo not drawn) [VIMINOLO, 1-[1'(o-chlorobenzyl)-2'-pyrryl]-2-di-sec.-butylaminoethanol]	most active compound within the disclosed class of aminoethanols	13.36	12.5 mg/kg	167 mg/kg				
